{"source": "patent US20190076464A1", "about": "“CYTIDINE DEAMINASE INHIBITORS FOR THE TREATMENT OF PANCREATIC CANCER” (INSERM (OMSTOTIT NATIONAL DE LA SANTÉ ET DE LA RECHERCHE …, priority 2016, published 2019)", "key": {"[1]": {"test_system": "cancer cell proliferation", "assay": "Cancer cell proliferation, CDA targeting combined with metabolic inhibitor (FIG. 7)", "type": "cell-based", "conditions": "in combination with CDA targeting", "from_the_text": "This finding opens several other combinatory therapeutic options as glutaminase (CB-839, FIG. 7) and α-KG dehydrogenase (CPI-613, a lipoate analog, inhibits mitochondrial enzymes pyruvate dehydrogenase (PDH) and α-KG dehydrogenase in NCI-H460 cell line, disrupts tumor cell mitochondrial metabolism) inhibitors are being evaluated clinically for PDA subjects^53."}, "[2]": {"test_system": "PDA", "conditions": "in combination with gemcitabine, compared with gemcitabine alone, reference 6; cited from earlier work"}, "[3]": {"test_system": "gemcitabine-resistant cells", "conditions": "reference 13; cited from earlier work"}, "[4]": {"test_system": "pancreatic cancer cells", "assay": "Sensitization of pancreatic cancer cells to gemcitabine by pharmacological inhibition of CDA (FIG. 6A)", "type": "cell-based, human", "conditions": "in vitro, CDA inhibitor combined with gemcitabine"}, "[5]": {"test_system": "pancreatic cancer cells", "assay": "Cell proliferation under pharmacological inhibition of CDA, without chemotherapy (FIG. 6B)", "type": "cell-based, human", "conditions": "CDA inhibitor alone"}, "[6]": {"test_system": "pancreatic cancer cells", "assay": "Tumor metabolism (NAD+/NADH ratio) under pharmacological inhibition of CDA (FIG. 6C)", "type": "cell-based, human", "conditions": "CDA inhibitor alone, FIG. 6C (NAD+/NADH ratio)", "excerpt": "Accordingly, we measure the glycolytic flux in CDA-deficient cells and the expression of key proteins involved in glycolysis in response to CDA targeting."}}}
{"smiles": "O=C(Cc1cccc(OC(F)(F)F)c1)Nc1ccc(CCCCc2nnc(NC(=O)Cc3ccccn3)s2)nn1", "note": "[CB839]", "values": [{"measurement": "cancer cell proliferation", "setting": "[1]", "value": "strongly inhibits cancer cell proliferation"}]}
{"smiles": "O=CC[C@@H](O)[C@H](O)[C@H](O)CO", "note": "[2-deoxy Glucose]", "values": [{"measurement": "cancer cell proliferation", "setting": "[1]", "value": "strongly inhibits cancer cell proliferation"}]}
{"smiles": "C#Cc1cccc(Nc2ncnc3cc(OCCOC)c(OCCOC)cc23)c1", "note": "[Erlotinib]", "values": [{"measurement": "overall survival time", "setting": "[2]", "value": "only slightly increases overall survival time"}]}
{"smiles": "O=C1NC(O)CCN1[C@@H]1O[C@H](CO)[C@@H](O)[C@H]1O", "note": "(stereo partly shown) [THU, Tetrahydrouridine]", "values": [{"measurement": "sensitivity to gemcitabine", "setting": "[3]", "value": "increases the sensitivity to gemcitabine"}]}
{"smiles": "O=C1NCC=CCN1[C@@H]1O[C@H](CO)[C@@H](O)[C@H]1O", "note": "[DR, 1,3-diazepinone riboside]", "values": [{"measurement": "sensitization to gemcitabine", "setting": "[4]", "value": "sensitizes pancreatic cancer cells to gemcitabine"}, {"measurement": "cell proliferation", "setting": "[5]", "value": "fails to alter cell proliferation"}, {"measurement": "tumor metabolism", "setting": "[6]", "value": "fails to alter"}]}
